Experiments:
Assay type in all cases: cell-based
CCRF-CEM = assay: cells; conditions: CCRF-CEM (Leukemia), 10 μM, 48 hours
SR = assay: cells; conditions: SR (Leukemia), 10 μM, 48 hours
IGROV1 = assay: cells; conditions: IGROV1 (Ovarian Cancer), 10 μM, 48 hours
ACHN = assay: cells; conditions: ACHN (Renal Cancer), 10 μM, 48 hours
SNB-19 = assay: cells; conditions: SNB-19 (CNS Cancer), 10 μM, 48 hours
SW-620 = assay: cells; conditions: SW-620 (Colon Cancer), 10 μM, 48 hours
NCI-H23 = assay: cells; conditions: NCI-H23 (Non-Small Cell Lung Cancer), 10 μM, 48 hours
SF-295 = assay: cells; conditions: SF-295 (CNS Cancer), 10 μM, 48 hours
CAKI-1 = assay: cells; conditions: CAKI-1 (Renal Cancer), 10 μM, 48 hours
PC-3 = assay: cells; conditions: PC-3 (Prostate Cancer), 10 μM, 48 hours
HCC-2998 = assay: cells; conditions: HCC-2998 (Colon Cancer), 10 μM, 48 hours
NCI-H322M = assay: cells; conditions: NCI-H322M (Non-Small Cell Lung Cancer), 10 μM, 48 hours
A498 = assay: cells; conditions: A498 (Renal Cancer), 10 μM, 48 hours
SF-539 = assay: cells; conditions: SF-539 (CNS Cancer), 10 μM, 48 hours
COLO 205 = assay: cells; conditions: COLO 205 (Colon Cancer), 10 μM, 48 hours
UACC-62 = assay: cells; conditions: UACC-62 (Melanoma), 10 μM, 48 hours
UACC-257 = assay: cells; conditions: UACC-257 (Melanoma), 10 μM, 48 hours
786-0 = assay: cells; conditions: 786-0 (Renal Cancer), 10 μM, 48 hours
SF-268 = assay: cells; conditions: SF-268 (CNS Cancer), 10 μM, 48 hours
RPMI-8226 = assay: cells; conditions: RPMI-8226 (Leukemia), 10 μM, 48 hours
[1] = test system: 55 to 60 cancer cell lines; conditions: 10 μM, 48 hours, all tested cell lines
SK-MEL-5 = assay: cells; conditions: SK-MEL-5 (Melanoma), 10 μM, 48 hours
MDA-MB-435 = assay: cells; conditions: MDA-MB-435 (Melanoma), 10 μM, 48 hours
NCI-H522 = assay: cells; conditions: NCI-H522 (Non-Small Cell Lung Cancer), 10 μM, 48 hours
TK-10 = assay: cells; conditions: TK-10 (Renal Cancer), 10 μM, 48 hours
K-562 = assay: cells; conditions: K-562 (Leukemia), 10 μM, 48 hours
HL-60 (TB) = assay: cells; conditions: HL-60 (TB) (Leukemia), 10 μM, 48 hours
DU-145 = assay: cells; conditions: DU-145 (Prostate Cancer), 10 μM, 48 hours
NCI-H226 = assay: cells; conditions: NCI-H226 (Non-Small Cell Lung Cancer), 10 μM, 48 hours
A549/ATCC = assay: cells; conditions: A549/ATCC (Non-Small Cell Lung Cancer), 10 μM, 48 hours
BT-549 = assay: cells; conditions: BT-549 (Breast Cancer), 10 μM, 48 hours
M14 = assay: cells; conditions: M14 (Melanoma), 10 μM, 48 hours
U251 = assay: cells; conditions: U251 (CNS Cancer), 10 μM, 48 hours
LOX IMVI = assay: cells; conditions: LOX IMVI (Melanoma), 10 μM, 48 hours

SMILES	growth percentage (CCRF-CEM) [%]	growth percentage (IGROV1) [%]	growth percentage (ACHN) [%]	growth percentage (SNB-19) [%]	growth percentage (SW-620) [%]	growth percentage (NCI-H23) [%]	growth percentage (CAKI-1) [%]	growth percentage (PC-3) [%]	growth percentage (HCC-2998) [%]	growth percentage (NCI-H322M) [%]	growth percentage (A498) [%]	growth percentage (SF-539) [%]	growth percentage (COLO 205) [%]	growth percentage (UACC-62) [%]	growth percentage (UACC-257) [%]	growth percentage (786-0) [%]	growth percentage (SF-268) [%]	growth percentage (RPMI-8226) [%]	Mean (mean growth percentage of the tested cancer cell lines) [1] [%]	growth percentage (SK-MEL-5) [%]	other results
CC1CCN(c2nc3ccccc3c3c2-c2ccc(Cl)cc2C3=O)CC1 [SJ-6, 9-Chloro-6-(4-methylpiperidin-1-yl)-11H-indeno[1,2-c]quinolin-11-one]	104.33	94.36	94.75	103.87	88.89	90.42	83.89	90.64	102.76	107.08	87.55	90.22	104.79	93.36	106.47	102.73	96.49	97.99	96.2	98.52	growth percentage (SR): 98.51%; growth percentage (SF-295): 96.18%; growth percentage (MDA-MB-435): 104.53%; growth percentage (NCI-H522): 98.45%; growth percentage (TK-10): 134.79%; growth percentage (K-562): 103.57%; growth percentage (HL-60 (TB)): 98.84%; growth percentage (DU-145): 103.47%; growth percentage (NCI-H226): 94.59%; growth percentage (A549/ATCC): 101.69%; growth percentage (BT-549): 95.52%; growth percentage (M14): 96.60%
O=C1c2cc(Cl)ccc2-c2c(N3CCN(C4CCCC4)CC3)nc3ccccc3c21 [SJ-14, 9-Chloro-6-(4-cyclopentylpiperazin-1-yl)-11H-indeno[1,2-c]quinolin-11-one]	95.17	85.84	100.03	95.06	93.06	92.80	93.83	86.19	106.04	98.50	88.64	101.34	104.54	95.06	98.37	97.90	96.39	94.89	96.53	97.48	growth percentage (SR): 97.09%; growth percentage (SF-295): 96.87%; growth percentage (MDA-MB-435): 99.93%; growth percentage (NCI-H522): 98.72%; growth percentage (K-562): 99.26%; growth percentage (HL-60 (TB)): 103.04%; growth percentage (DU-145): 110.73%; growth percentage (NCI-H226): 92.80%; growth percentage (A549/ATCC): 101.56%; growth percentage (BT-549): 102.74%; growth percentage (M14): 105.34%
O=C1c2cc(Cl)ccc2-c2c(N3CCN(c4ccccc4)CC3)nc3ccccc3c21 [SJ-16, 9-Chloro-6-(4-phenylpiperazin-1-yl)-11H-indeno[1,2-c]quinolin-11-one]	93.52	65.13	68.58	88.40	93.14	83.34	80.23	79.79	106.23	98.63	97.48	83.17	102.19	87.17	98.40	81.41	85.45	95.33	87.29	99.23	growth percentage (SR): 95.93%; growth percentage (SF-295): 60.91%; growth percentage (MDA-MB-435): 99.55%; growth percentage (NCI-H522): 80.10%; growth percentage (TK-10): 115.61%; growth percentage (K-562): 95.17%; growth percentage (HL-60 (TB)): 105.45%; growth percentage (DU-145): 102.96%; growth percentage (NCI-H226): 79.43%; growth percentage (A549/ATCC): 90.89%; growth percentage (BT-549): 89.83%; growth percentage (M14): 97.52%
COc1cccc(N2CCN(c3nc4ccccc4c4c3-c3ccc(Cl)cc3C4=O)CC2)c1 [SJ-20, 9-Chloro-6-(4-(3-methoxyphenyl)piperazin-1-yl)-11H-indeno[1,2-c]quinolin-11-one]	93.78	80.87	93.51	105.27	91.16	87.22	86.59	72.83	105.79	91.93	104.53	83.97	106.63	86.44	93.79	81.67	83.89	93.63	92.15	96.87	growth percentage (SR): 95.05%; growth percentage (SF-295): 90.05%; growth percentage (MDA-MB-435): 100.75%; growth percentage (NCI-H522): 79.75%; growth percentage (TK-10): 133.34%; growth percentage (K-562): 94.25%; growth percentage (HL-60 (TB)): 99.09%; growth percentage (DU-145): 98.98%; growth percentage (NCI-H226): 89.19%; growth percentage (A549/ATCC): 101.22%; growth percentage (BT-549): 101.57%; growth percentage (M14): 105.07%
COc1nc2ccccc2c2c1-c1ccc(Cl)cc1C2=O [SJ-27, 6-Methoxy-9-chloro-11H-indeno[1,2-c]quinolin-11-one]	89.25	96.92	90.83	96.35	98.89	93.26	90.65	74.44	104.46	99.80	93.51	91.49	108.91	74.08	98.20	103.51	113.64	90.30	96.23	98.51	growth percentage (U251): 97.67%; growth percentage (MDA-MB-435): 100.31%; growth percentage (NCI-H522): 95.89%; growth percentage (K-562): 108.53%; growth percentage (HL-60 (TB)): 108.77%; growth percentage (DU-145): 121.06%; growth percentage (NCI-H226): 89.22%; growth percentage (A549/ATCC): 99.70%; growth percentage (BT-549): 92.95%; growth percentage (LOX IMVI): 116.91%; growth percentage (M14): 96.50%

From patent publication US20150197492A1, “NOVEL INDENO[1,2-c]QUINOLIN-11-ONE DERIVATIVES, PREPARATION METHOD AND APPLICATION THEREOF” (National Defense Medical Center, priority 2014, published 2015)
